# Like-named read-outs stand apart in the source and are kept apart here.
# Columns and labels:
# P. multocida = test: Minimal inhibitory concentration (MIC), double-dilution in broth, OD600; format: cell-based, Pasteurella multocida; conditions: unit assumed
# Procedure: (§1) In short, a stock solution of 5 mg/mL of HKIs in DMSO was made. This stock was diluted to 50 µg/mL in broth in a 96 well plate. Dilutions were made (factor 2) directly in the plate with a multi-channel pipet. Bacteria cultured in suspension overnight were then added to the plate (except negative control) and the plate was incubated for 24 hours. After 24 hours the OD600 was measured using a spectrophotometer. A positive control (with bacteria, without HKI) was also measured on each plate. The MICs were not determined in duplo/triplicate in the same experiment, however, the MICs of several HKIs were measured in different experiments and no major differences (max. 1x dilution) were found in the MICs between the experiments.
# (§2) Bacterial strains used in this study for antibacterial susceptibility testing (Table S2) were propagated using standard microbiological procedures. Minimal inhibitory concentrations (MICs) were determined following a standard double-dilution method (42), 73. MICs were recorded as the lowest concentration of the compound where no visible growth was observed. After plating the dilutions around the MIC or growing them in fresh MH media, minimal bactericidal concentration (MBC) was recorded as the lowest concentration of the compound at which no colonies were formed or no growth was observed, respectively. For M. marinum, MICs were determined in Middlebrook 7H9 broth (Difco) and MICs were determined after 3 days incubation at 30 °C.
# (§3) Grow the bacterial colonies to be tested from single colonies on an agar plate in LB broth or suitable bacterial growth medium overnight at 37°C. Prepare a 5 mg/mL stock solution of compounds to be tested in DMSO. One 96-well plate per bacterial strain was prepared. First, put 50 uL of medium to each well. Add 48 µL of medium to all wells in row A. Pipet 2 µL of antimicrobial master stock into the top well (row A). Beware, the antimicrobial concentration will be diluted 2x after adding the bacterial culture. Total volume in each well will be 100 µL. In A11, pipet 2 µL of DMSO. Make a serial dilution from row A to row H, pipetting 50 µL from the previous row into the new one. Mix well by pipetting up and down. Discard the last 50 µL so that there is 50 µl in each well In a clean, new plastic pipetting cup, dilute the overnight bacterial culture 100 times. Add 100 µL of bacterial overnight culture to 9900 µL of medium. Mix the suspension well. Once the serial dilutions are complete for all antimicrobial compounds, add 50 µL of diluted overnight bacterial culture to each well (except column 12). Mix by pipetting or put the plate on the shaker. Per 2 plates, close with parafilm around the edges and place in the incubator overnight. After overnight culturing, measure bacterial growth on the SpectraMax. The lowest concentration where no growth is observed is the MIC. To determine the MIB pipette 5 µL from each well of the 96 well plate where now growth was observed on to an LB agar plate, without antimicrobial. Put the plates in the incubator to grow overnight. The minimal concentration where no growth can be seen on the agar plate is the MBC.
# S. aureus Newman = test: as above; format: cell-based, Staphylococcus aureus Newman; conditions: unit assumed
# Procedure: as §1, with “plate.” for “plate. The MICs were not determined in duplo/triplicate in the same experiment, however, the MICs of several HKIs were measured in different experiments and no major differences (max. 1x dilution) were found in the MICs between the experiments.”
# Bacterial strains used in this study for antibacterial susceptibility testing (Table S2) were propagated using standard microbiological procedures. Minimal inhibitory concentrations (MICs) were determined following a standard double-dilution method (42), 73. […] For M. marinum, MICs were determined in Middlebrook 7H9 broth (Difco) and MICs were determined after 3 days incubation at 30 °C.
# as §3
# E. faecium Van A = test: as above; format: cell-based, Enterococcus faecium; conditions: unit assumed
# Procedure: as §1, §2, §3
# S. suis = test: as above; format: cell-based, Streptococcus suis; conditions: unit assumed
# Procedure: as §1, §2, §3
# M. marinum = test: Minimal inhibitory concentration (MIC), Middlebrook 7H9 broth, 3 days at 30 °C; format: cell-based, Mycobacterium marinum; conditions: unit assumed
# Procedure: as §1, §2, §3
# NRK-52E = test: Cell toxicity, Alamar blue assay, 24 hours exposure; format: cell-based; conditions: Rattus norvegicus, read-out: IC50 NRK-52E (50 mg/mL stock)
# Procedure: (§4) Toxicity was primarily determined by measuring cytotoxicity with the Alamar blue assay. In short, cells (HEK293, NRK-52E and Caco-2) were plated in 96-well plates and cultured overnight. HKI compounds were diluted to concentrations ranging from 0.39 to 500 µg/mL in serum-free medium and added to the cells.
# (§5) After exposure, cells were incubated for 24 hours. Experiments were mostly performed by single measurement. […] After 24 hours HKIs were removed from the cells and Alamar blue was added, incubated for 45 minutes and fluorescence was measured on a spectrophotometer. Alamar blue measures the conversion of blue, low fluorescent resazurin into high fluorescent pink resorufin. This conversion can only be made in viable mitochondria in viable cells and therefore this dye provides a measure for cytotoxicity.
# HEK293 = test: as above; format: cell-based; conditions: Homo sapiens
# Procedure: as §4, §5
# E. coli JW5503 = format: cell-based, Escherichia coli; conditions: unit assumed
# Procedure: as §1, §2, §3
# [1] = HEK293, read-out: IC50 HEK293 (5 mg/mL stock)
# [2] = HEK293, read-out: IC50 HEK293 (50 mg/mL stock)
SMILES,MIC P. multocida (P. multocida) [µg/mL],MIC S. aureus Newman (S. aureus Newman) [µg/mL],MIC E. faecium Van A (E. faecium Van A) [µg/mL],MIC S. suis (S. suis) [µg/mL],MIC M. marinum (M. marinum) [µg/mL],IC50 (NRK-52E) [µg/mL],IC50 (HEK293; [1]) [µg/mL],IC50 (HEK293; [2]) [µg/mL],MIC E. coli JW5503 (E. coli JW5503) [µg/mL]
"CCOc1ccc(-c2n[nH]c(C(F)(F)F)c2-c2ccccc2)c(O)c1 [May-22, 5-ethoxy-2-[4-phenyl-5-(trifluoromethyl)-1∼{H}-pyrazol-3-yl]phenol]",50,3.13,> 50,6.25,> 50,19.2,5.8,19.9,
"COc1ccc(-c2n[nH]cc2-c2ccc(Cl)cc2)c(O)c1 [Sep-23, 2-[4-(4-chlorophenyl)-1∼{H}-pyrazol-5-yl]-5-methoxy-phenol]",> 50,25,> 50,> 50,> 50,259,9.14,39.7,
"CCOc1ccc(-c2n[nH]c(C)c2-c2ccc(Cl)cc2)c(O)c1 [Sep-22, 2-[4-(4-chlorophenyl)--5-methyl-1∼{H}-pyrazol-3-yl]-5-ethoxy-phenol]",> 50,50,> 50,50,> 50,~1480,,23.6,
"Oc1ccc(-c2onc(C(F)(F)F)c2-c2ccc(Cl)cc2)c(O)c1 [AND-2, 4-[4-(4-chlorophenyl)-3-(trifluoromethyl)isoxazol-5-yl]resorcinol]",25,3.13,6.25,12.5,> 50,~3.88,6.97,36.7,
"C=C(C)COc1ccc(-c2[nH]nc(C(F)(F)F)c2-c2ccc(OC)cc2)c(O)c1 [Sep-7, 2-[4-(4-methoxyphenyl)-5-(trifluoromethyl)-1∼{H}-pyrazol-3-yl]-5-(2-methylallyloxy)phenol]",> 50,6.25,12.5,12.5,> 50,~7.49,,,6.25
"CCOc1ccc(-c2[nH]nc(C(F)(F)F)c2-c2ccc(OC)c(OC)c2)c(O)c1 [May-3, 2-[4-(3,4-dimethoxyphenyl)-5-(trifluoromethyl)-1∼{H}-pyrazol-3-yl]-5-ethoxy-phenol]",> 50,12.5,,12.5,25,~0.8,6.69,,
"O=[N+]([O-])c1ccc(COc2ccc(-c3[nH]nc(C(F)(F)F)c3-c3ccc(Cl)cc3)c(O)c2)cc1 [Sep-12, 2-[4-(4-chlorophenyl)-5-(trifluoromethyl)-1∼{H}-pyrazol-3-yl]-5-(4-nitrobenzyl)oxyphenol]",> 50,3.13,12.5,12.5,50,14.7,,,> 50
"COc1ccc(-c2c(-c3ccc(O)cc3O)n[nH]c2C(F)(F)F)cc1 [May-9, 4-[4-(4-methoxyphenyl)-5-(trifluoromethyl)-1∼{H}-pyrazol-3-yl]resorcinol]",50,12.5,25,12.5,> 50,~3.15,,,3.13
